This is an account of results in US9340590B2 (priority 2011, dated 2016).

Where two headings read alike, the source gives them in different places. Positions of bridges follow the written chain, without caps; N, C: chain ends. Non-standard residues stand in square brackets, D forms with d. Residues, ends and D or L forms follow the SMILES beside them. Trp(1-Me) = Cn1cc(C[C@H](N)C(=O)O)c2ccccc21; Cit = NC(=O)NCCC[C@H](N)C(=O)O

Assay in all cases: cell-based
The target in one assay is hNav1.3 (Homo sapiens, UniProt Q9NY46). The note with it: IonWorks Quattro, read-out: IWQ Use Nav1.3.
Sequence of hNav1.3 (Q9NY46 whole entry, looked up): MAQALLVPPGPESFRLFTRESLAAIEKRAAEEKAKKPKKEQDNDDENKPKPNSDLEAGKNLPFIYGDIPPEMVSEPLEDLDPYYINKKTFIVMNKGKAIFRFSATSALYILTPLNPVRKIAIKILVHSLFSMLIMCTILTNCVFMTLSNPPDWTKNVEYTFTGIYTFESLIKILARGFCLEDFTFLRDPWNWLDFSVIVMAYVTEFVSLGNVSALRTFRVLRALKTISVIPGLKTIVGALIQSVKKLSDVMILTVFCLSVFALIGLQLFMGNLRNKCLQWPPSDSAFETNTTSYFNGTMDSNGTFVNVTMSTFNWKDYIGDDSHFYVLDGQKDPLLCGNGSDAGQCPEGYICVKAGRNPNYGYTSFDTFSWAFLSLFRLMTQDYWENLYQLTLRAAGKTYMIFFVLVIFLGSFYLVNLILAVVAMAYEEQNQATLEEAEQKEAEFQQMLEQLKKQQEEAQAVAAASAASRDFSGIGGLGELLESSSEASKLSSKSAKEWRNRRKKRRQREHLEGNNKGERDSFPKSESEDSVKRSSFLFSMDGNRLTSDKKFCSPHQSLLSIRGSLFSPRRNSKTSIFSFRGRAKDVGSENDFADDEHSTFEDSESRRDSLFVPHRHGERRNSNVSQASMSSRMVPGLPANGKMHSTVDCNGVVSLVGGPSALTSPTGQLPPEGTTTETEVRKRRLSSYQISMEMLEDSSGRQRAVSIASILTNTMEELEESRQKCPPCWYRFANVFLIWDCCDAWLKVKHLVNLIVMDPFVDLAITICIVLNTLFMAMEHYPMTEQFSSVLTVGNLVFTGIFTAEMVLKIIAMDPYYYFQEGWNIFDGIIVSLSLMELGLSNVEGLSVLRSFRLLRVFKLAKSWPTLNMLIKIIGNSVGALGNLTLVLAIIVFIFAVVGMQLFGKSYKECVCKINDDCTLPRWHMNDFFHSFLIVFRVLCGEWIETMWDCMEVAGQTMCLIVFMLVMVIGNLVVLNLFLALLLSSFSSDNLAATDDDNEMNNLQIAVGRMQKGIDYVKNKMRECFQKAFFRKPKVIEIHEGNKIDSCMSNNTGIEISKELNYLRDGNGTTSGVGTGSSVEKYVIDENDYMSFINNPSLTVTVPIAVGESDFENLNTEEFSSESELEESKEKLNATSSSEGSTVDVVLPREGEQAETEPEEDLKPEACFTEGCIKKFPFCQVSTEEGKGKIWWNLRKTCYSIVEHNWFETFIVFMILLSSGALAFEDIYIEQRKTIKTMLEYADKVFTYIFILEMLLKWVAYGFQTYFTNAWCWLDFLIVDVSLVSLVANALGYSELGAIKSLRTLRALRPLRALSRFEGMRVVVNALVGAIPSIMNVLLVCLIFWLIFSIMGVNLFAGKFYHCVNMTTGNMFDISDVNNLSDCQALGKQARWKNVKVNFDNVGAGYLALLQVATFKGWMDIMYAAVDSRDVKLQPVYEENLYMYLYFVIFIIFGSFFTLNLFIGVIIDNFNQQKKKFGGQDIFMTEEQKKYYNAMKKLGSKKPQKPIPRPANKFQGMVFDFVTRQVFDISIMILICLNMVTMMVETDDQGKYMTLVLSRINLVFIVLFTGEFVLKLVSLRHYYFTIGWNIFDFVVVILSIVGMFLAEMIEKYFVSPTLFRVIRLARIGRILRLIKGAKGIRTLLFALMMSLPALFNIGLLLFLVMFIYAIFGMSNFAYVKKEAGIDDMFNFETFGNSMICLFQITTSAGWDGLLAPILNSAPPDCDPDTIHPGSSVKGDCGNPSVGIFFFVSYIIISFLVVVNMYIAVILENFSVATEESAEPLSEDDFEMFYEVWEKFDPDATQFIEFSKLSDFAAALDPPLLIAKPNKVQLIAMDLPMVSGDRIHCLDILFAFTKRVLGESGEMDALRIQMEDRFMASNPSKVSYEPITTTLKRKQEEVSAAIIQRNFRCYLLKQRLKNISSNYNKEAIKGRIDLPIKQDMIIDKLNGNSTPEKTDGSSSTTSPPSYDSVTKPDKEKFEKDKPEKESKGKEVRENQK
Another assay deals with hNav1.7 (Homo sapiens, UniProt Q15858). Type of assay: cell-based. As to conditions: IonWorks Quattro.
Sequence of hNav1.7 (Q15858 whole entry, looked up): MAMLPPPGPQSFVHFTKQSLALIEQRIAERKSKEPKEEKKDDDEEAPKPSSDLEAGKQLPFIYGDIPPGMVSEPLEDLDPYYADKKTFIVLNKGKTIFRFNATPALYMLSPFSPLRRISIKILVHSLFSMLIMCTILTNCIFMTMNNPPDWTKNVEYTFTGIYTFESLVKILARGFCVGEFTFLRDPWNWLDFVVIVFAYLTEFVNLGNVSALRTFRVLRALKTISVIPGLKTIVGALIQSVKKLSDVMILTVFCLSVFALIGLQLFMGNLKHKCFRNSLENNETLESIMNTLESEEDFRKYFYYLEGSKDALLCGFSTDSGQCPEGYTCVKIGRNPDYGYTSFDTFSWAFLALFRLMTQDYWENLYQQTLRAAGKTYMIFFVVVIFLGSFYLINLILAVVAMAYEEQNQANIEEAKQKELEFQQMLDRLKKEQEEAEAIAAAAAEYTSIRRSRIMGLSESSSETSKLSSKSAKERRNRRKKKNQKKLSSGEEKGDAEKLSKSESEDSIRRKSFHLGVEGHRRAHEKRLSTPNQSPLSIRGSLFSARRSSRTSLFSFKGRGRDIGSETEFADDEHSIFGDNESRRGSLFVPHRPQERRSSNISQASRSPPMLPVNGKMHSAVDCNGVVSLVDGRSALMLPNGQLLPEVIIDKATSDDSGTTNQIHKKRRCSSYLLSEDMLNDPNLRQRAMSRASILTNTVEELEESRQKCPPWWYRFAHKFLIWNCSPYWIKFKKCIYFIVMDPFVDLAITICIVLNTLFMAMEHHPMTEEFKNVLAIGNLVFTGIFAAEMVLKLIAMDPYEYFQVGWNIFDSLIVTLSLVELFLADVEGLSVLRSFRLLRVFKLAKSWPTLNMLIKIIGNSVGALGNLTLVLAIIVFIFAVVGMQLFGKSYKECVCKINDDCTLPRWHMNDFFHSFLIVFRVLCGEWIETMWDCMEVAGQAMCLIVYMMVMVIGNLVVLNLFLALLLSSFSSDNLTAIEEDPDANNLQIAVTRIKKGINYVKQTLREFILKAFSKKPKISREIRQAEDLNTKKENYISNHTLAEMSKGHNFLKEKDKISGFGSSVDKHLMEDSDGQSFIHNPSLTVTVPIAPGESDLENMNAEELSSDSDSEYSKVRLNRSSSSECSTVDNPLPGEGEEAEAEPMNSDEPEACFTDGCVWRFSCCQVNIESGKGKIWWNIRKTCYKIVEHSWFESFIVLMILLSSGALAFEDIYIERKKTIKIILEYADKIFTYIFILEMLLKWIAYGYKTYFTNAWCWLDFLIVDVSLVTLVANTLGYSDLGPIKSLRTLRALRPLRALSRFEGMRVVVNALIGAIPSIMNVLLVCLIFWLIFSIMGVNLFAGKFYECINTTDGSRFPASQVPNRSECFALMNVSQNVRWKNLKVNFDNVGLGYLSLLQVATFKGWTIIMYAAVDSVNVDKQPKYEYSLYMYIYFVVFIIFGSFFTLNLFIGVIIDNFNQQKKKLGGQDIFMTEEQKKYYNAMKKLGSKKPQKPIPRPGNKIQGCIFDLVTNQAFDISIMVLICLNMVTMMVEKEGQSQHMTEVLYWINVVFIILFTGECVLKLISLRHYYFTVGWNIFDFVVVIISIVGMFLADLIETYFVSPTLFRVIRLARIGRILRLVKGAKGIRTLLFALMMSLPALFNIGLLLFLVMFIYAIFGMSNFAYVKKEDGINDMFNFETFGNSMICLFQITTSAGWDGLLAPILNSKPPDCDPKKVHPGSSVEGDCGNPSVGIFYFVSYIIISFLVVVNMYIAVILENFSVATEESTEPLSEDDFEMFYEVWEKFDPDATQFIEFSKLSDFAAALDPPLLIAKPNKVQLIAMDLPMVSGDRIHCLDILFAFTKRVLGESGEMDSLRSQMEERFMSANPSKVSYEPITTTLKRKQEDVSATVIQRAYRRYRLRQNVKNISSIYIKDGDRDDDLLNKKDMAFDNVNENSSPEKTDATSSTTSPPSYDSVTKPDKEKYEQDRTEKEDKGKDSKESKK
The target in a further assay is hNav1.5 (Homo sapiens, UniProt Q14524). The note with it: IonWorks Quattro, read-out: IWQ Use Nav1.5.
The mark [1] stands for this setting: use-dependent protocol, hNav1.3.
The mark [2] stands for this setting: use-dependent protocol, hNav1.7, read-out: IWQ Use Nav1.7.
Setting [3] is: use-dependent protocol, hNav1.5.

As for `CC[C@H](C)[C@@H]1NC(=O)[C@@H]2CSSC[C@@H]3NC(=O)[C@H](C(C)C)NC(=O)[C@H](CC(C)C)NC(=O)[C@H](CC(N)=O)NC(=O)[C@@H]4CCCN4C(=O)[C@H](CCCNC(=N)N)NC(=O)[C@H](CSSC[C@H](NC(=O)[C@@H](N)CC(=O)O)C(=O)N[C@@H](CC(C)C)C(=O)NCC(=O)N[C@@H](Cc4ccccc4)C(=O)N[C@@H](CCSC)C(=O)N[C@@H](CCCNC(=N)N)C(=O)N[C@@H](CCCCN)C(=O)N2)NC(=O)[C@H](CSSC[C@@H](C(=O)N[C@@H](CCCCN)C(=O)N[C@@H](Cc2ccc(O)cc2)C(=O)N[C@H](C(=O)N[C@@H](Cc2ccccc2)C(N)=O)C(C)C)NC(=O)[C@H](Cc2c[nH]c4ccccc24)NC(=O)[C@H](CCCCN)NC(=O)[C@H](Cc2c[nH]cn2)NC(=O)[C@H]([C@@H](C)O)NC(=O)[C@H](CCC(=O)O)NC(=O)[C@H](CO)NC3=O)NC(=O)[C@H](CCCCN)NC(=O)[C@H](CC(=O)O)NC(=O)[C@H](CC(N)=O)NC(=O)[C@H](CC(=O)O)NC(=O)[C@@H]2CCCN2C1=O` [compound 151] (H-DCLGFMRKCIPDNDKCCRPNLVCSETHKWCKYVF-NH2; disulfide 2-17, 9-23, 16-30), the IC50 at hNav1.3 (Use) amounted to 1170 nM; at hNav1.7 (Use, read-out: IWQ Use Nav1.7), 710 nM; at hNav1.5 (Use), 14000 nM.

As for `CC[C@H](C)[C@@H]1NC(=O)[C@@H]2CSSC[C@@H]3NC(=O)[C@H](C(C)C)NC(=O)[C@H](CC(C)C)NC(=O)[C@H](CC(N)=O)NC(=O)[C@@H]4CCCN4C(=O)[C@H](CCCNC(=N)N)NC(=O)[C@H](CSSC[C@H](NC(=O)[C@@H](N)CC(=O)O)C(=O)N[C@@H](CC(C)C)C(=O)NCC(=O)N[C@@H](C)C(=O)N[C@@H](CC(C)C)C(=O)N[C@@H](CCCNC(=N)N)C(=O)N[C@@H](CCCCN)C(=O)N2)NC(=O)[C@H](CSSC[C@@H](C(=O)N[C@@H](CCCCN)C(=O)N[C@@H](Cc2ccc(O)cc2)C(=O)N[C@H](C(=O)N[C@@H](Cc2ccccc2)C(=O)O)C(C)C)NC(=O)[C@H](Cc2c[nH]c4ccccc24)NC(=O)[C@H](CCCNC(=N)N)NC(=O)[C@H](Cc2c[nH]cn2)NC(=O)[C@H]([C@@H](C)O)NC(=O)[C@H](CCCNC(=N)N)NC(=O)[C@H](CO)NC3=O)NC(=O)[C@H](CCCCN)NC(=O)[C@H](CC(=O)O)NC(=O)[C@H](CCCNC(=N)N)NC(=O)[C@H](CC(=O)O)NC(=O)[C@@H]2CCCN2C1=O` [compound 870] (H-DCLGALRKCIPDRDKCCRPNLVCSRTHRWCKYVF-OH; disulfide 2-17, 9-23, 16-30), the IC50 at hNav1.3 (use-dependent block, hNav1.3) was 1400 nM; on hNav1.7 (use-dependent block, hNav1.7, read-out: IWQ Use Nav1.7) it was greater than 5000 nM; at hNav1.5 (use-dependent block, hNav1.5) it was greater than 5000 nM.

As to `CC[C@H](C)[C@@H]1NC(=O)[C@@H]2CSSC[C@@H]3NC(=O)[C@H](CC(C)C)NC(=O)[C@H](CC(C)C)NC(=O)[C@H](CC(N)=O)NC(=O)[C@@H]4CCCN4C(=O)[C@H](CCCNC(=N)N)NC(=O)[C@H](CSSC[C@H](NC(=O)[C@@H](N)CC(=O)O)C(=O)N[C@@H](CC(C)C)C(=O)NCC(=O)N[C@@H](Cc4ccccc4)C(=O)N[C@@H](CCSC)C(=O)N[C@@H](CCCNC(=N)N)C(=O)N[C@@H](CCCCN)C(=O)N2)NC(=O)[C@H](CSSC[C@@H](C(=O)N[C@@H](CCCCN)C(=O)N[C@@H](Cc2ccc(O)cc2)C(=O)N[C@H](C(=O)N[C@@H](Cc2ccccc2)C(N)=O)C(C)C)NC(=O)[C@H](Cc2c[nH]c4ccccc24)NC(=O)[C@H](CCCCN)NC(=O)[C@H](Cc2c[nH]cn2)NC(=O)[C@H]([C@@H](C)O)NC(=O)[C@H](CCCNC(=N)N)NC(=O)[C@H](CO)NC3=O)NC(=O)[C@H](CCCCN)NC(=O)[C@H](CC(=O)O)NC(=O)[C@H](CC(N)=O)NC(=O)[C@H](CC(=O)O)NC(=O)[C@@H]2CCCN2C1=O` [compound 322] (H-DCLGFMRKCIPDNDKCCRPNLLCSRTHKWCKYVF-NH2; disulfide 2-17, 9-23, 16-30), the IC50 turned out to be 70 nM at hNav1.3 (Use); 90 nM on hNav1.7 (Use, read-out: IWQ Use Nav1.7); 9580 nM on hNav1.5 (Use).

As to `CC[C@H](C)[C@@H]1NC(=O)[C@@H]2CSSC[C@@H]3NC(=O)[C@H](C(C)C)NC(=O)[C@H](CC(C)C)NC(=O)[C@H](CC(N)=O)NC(=O)[C@@H]4CCCN4C(=O)[C@H](CCCNC(=N)N)NC(=O)[C@H](CSSC[C@H](NC(=O)[C@@H](N)CC(=O)O)C(=O)N[C@@H](CC(C)C)C(=O)NCC(=O)N[C@@H](C(C)C)C(=O)N[C@@H](CCSC)C(=O)N[C@@H](CCCNC(=N)N)C(=O)N[C@@H](CCCCN)C(=O)N2)NC(=O)[C@H](CSSC[C@@H](C(=O)N[C@@H](CCCCN)C(=O)N[C@@H](Cc2ccc(O)cc2)C(=O)N[C@H](C(=O)N[C@@H](Cc2ccccc2)C(N)=O)C(C)C)NC(=O)[C@H](Cc2c[nH]c4ccccc24)NC(=O)[C@H](CCCCN)NC(=O)[C@H](Cc2c[nH]cn2)NC(=O)[C@H]([C@@H](C)O)NC(=O)[C@H](CCCNC(N)=O)NC(=O)[C@H](CO)NC3=O)NC(=O)[C@H](CCCCN)NC(=O)[C@H](CC(=O)O)NC(=O)[C@H](CC(N)=O)NC(=O)[C@H](CC(=O)O)NC(=O)[C@@H]2CCCN2C1=O` [compound 713] (H-DCLGVMRKCIPDNDKCCRPNLVCS[Cit]THKWCKYVF-NH2; disulfide 2-17, 9-23, 16-30), the IC50 at hNav1.3 (setting [1]) stood at 4200 nM; at hNav1.7 (setting [2]), 830 nM; on hNav1.5 (setting [3]), 36000 nM.

On to `CC[C@H](C)[C@@H]1NC(=O)[C@@H]2CSSC[C@@H]3NC(=O)[C@H](C(C)C)NC(=O)[C@H](CC(C)C)NC(=O)[C@H](CC(N)=O)NC(=O)[C@@H]4CCCN4C(=O)[C@H](CCCNC(=N)N)NC(=O)[C@H](CSSC[C@H](NC(=O)[C@@H](N)CC(=O)O)C(=O)N[C@@H](CC(C)C)C(=O)NCC(=O)N[C@@H](CCSC)C(=O)N[C@@H](CCSC)C(=O)N[C@@H](CCCNC(=N)N)C(=O)N[C@@H](CCCCN)C(=O)N2)NC(=O)[C@H](CSSC[C@@H](C(=O)N[C@@H](CCCCN)C(=O)N[C@@H](Cc2cn(C)c4ccccc24)C(=O)N[C@H](C(=O)N[C@@H](Cc2ccccc2)C(N)=O)C(C)C)NC(=O)[C@H](Cc2c[nH]c4ccccc24)NC(=O)[C@H](CCCCN)NC(=O)[C@H](Cc2c[nH]cn2)NC(=O)[C@H]([C@@H](C)O)NC(=O)[C@H](CCCNC(=N)N)NC(=O)[C@H](CO)NC3=O)NC(=O)[C@H](CCCCN)NC(=O)[C@H](CC(=O)O)NC(=O)[C@H](CC(N)=O)NC(=O)[C@H](CC(=O)O)NC(=O)[C@@H]2CCCN2C1=O` [compound 693] (H-DCLGMMRKCIPDNDKCCRPNLVCSRTHKWCK[Trp(1-Me)]VF-NH2; disulfide 2-17, 9-23, 16-30), for which the results for the IC50 on hNav1.3 (setting [1]), on hNav1.7 (setting [2]) and at hNav1.5 (setting [3]) were 100 nM, 46 nM and greater than 5000 nM, respectively.

As for `CC[C@H](C)[C@@H]1NC(=O)[C@@H]2CSSC[C@@H]3NC(=O)[C@H](C(C)C)NC(=O)[C@H](CC(C)C)NC(=O)[C@H](CC(N)=O)NC(=O)[C@@H]4CCCN4C(=O)[C@H](CCCNC(=N)N)NC(=O)[C@H](CSSC[C@H](NC(=O)[C@@H](N)CC(=O)O)C(=O)N[C@@H](CC(C)C)C(=O)NCC(=O)N[C@@H](Cc4ccccc4)C(=O)N[C@@H](CCSC)C(=O)N[C@@H](CCCNC(=N)N)C(=O)N[C@@H](CCCCN)C(=O)N2)NC(=O)[C@H](CSSC[C@@H](C(=O)N[C@@H](CCCCN)C(=O)N[C@@H](Cc2ccc(O)cc2)C(=O)N[C@H](C(=O)N[C@@H](Cc2cn(C)c4ccccc24)C(N)=O)C(C)C)NC(=O)[C@H](Cc2c[nH]c4ccccc24)NC(=O)[C@H](CCCCN)NC(=O)[C@H](Cc2c[nH]cn2)NC(=O)[C@H]([C@@H](C)O)NC(=O)[C@H](CCCNC(=N)N)NC(=O)[C@H](CO)NC3=O)NC(=O)[C@H](CCCCN)NC(=O)[C@H](CC(=O)O)NC(=O)[C@H](CC(N)=O)NC(=O)[C@H](CC(=O)O)NC(=O)[C@@H]2CCCN2C1=O` [compound 409] (H-DCLGFMRKCIPDNDKCCRPNLVCSRTHKWCKYV[Trp(1-Me)]-NH2; disulfide 2-17, 9-23, 16-30), the IC50 was 70 nM at hNav1.3 (use-dependent, […]); 90 nM at hNav1.7 (use-dependent, […], read-out: IWQ Use Nav1.7); 5610 nM on hNav1.5 (use-dependent, […]).

As to `CC[C@H](C)[C@@H]1NC(=O)[C@@H]2CSSC[C@@H]3NC(=O)[C@H](C(C)C)NC(=O)[C@H](CC(C)C)NC(=O)[C@H](CC(N)=O)NC(=O)[C@@H]4CCCN4C(=O)[C@H](CCCNC(=N)N)NC(=O)[C@H](CSSC[C@H](NC(=O)[C@@H](N)CC(=O)O)C(=O)N[C@@H](CC(C)C)C(=O)NCC(=O)N[C@@H](Cc4ccccc4)C(=O)N[C@@H](CCSC)C(=O)N[C@@H](CCCNC(=N)N)C(=O)N[C@@H](CCCCN)C(=O)N2)NC(=O)[C@H](CSSC[C@@H](C(=O)N[C@@H](CCCCN)C(=O)N[C@@H](Cc2ccc(O)cc2)C(=O)N[C@H](C(=O)N[C@@H](Cc2ccccc2)C(=O)N[C@@H](C)C(N)=O)C(C)C)NC(=O)[C@H](Cc2c[nH]c4ccccc24)NC(=O)[C@H](CCCCN)NC(=O)[C@H](Cc2c[nH]cn2)NC(=O)[C@H]([C@@H](C)O)NC(=O)[C@H](CCCNC(=N)N)NC(=O)[C@H](CO)NC3=O)NC(=O)[C@H](CCCCN)NC(=O)[C@H](CC(=O)O)NC(=O)[C@H](CC(N)=O)NC(=O)[C@H](CC(=O)O)NC(=O)[C@@H]2CCCN2C1=O` [compound 16], the IC50 at hNav1.3 (use-dependent, […]) was 260 nM; at hNav1.7 (use-dependent, […], read-out: IWQ Use Nav1.7 (μm)), 410 nM; at hNav1.5 (use-dependent, […]), 14200 nM.
